15 compounds from ChEMBL document CHEMBL3351846, “Synthesis and SAR studies of bis-chromenone derivatives for anti-proliferative activity against human cancer cells” (Bioorg Med Chem Lett, 2014) can be followed below.

Assay type in all cases: functional, cell-based
Test [1] is described as follows: Anti-proliferative activity against human NUGC3 cells by XTT assay. The settings on record: NUGC-3. (Tetrazolium dyes change colour on reduction, which living cells bring about.)
For test [2], the system named is NCI-H23. The test can be described thus: Anti-proliferative activity against human NCI-H23 cells by XTT assay.
Test [3] concerns ACHN. The test can be described thus: Anti-proliferative activity against human ACHN cells by XTT assay.
Test [4] relates to MDA-MB-231. Kind of test: Anti-proliferative activity against human MDA-MB-231 cells by XTT assay.
Test [5] can be described thus: Anti-proliferative activity against human PC3 cells by XTT assay. Conditions: PC-3.
Test [6] can be described thus: Anti-proliferative activity against human HCT15 cells by XTT assay. The settings on record: HCT-15.

Where a name gives a salt, the structure may show the parent alone.

For `O=c1c(Cc2coc3ccccc3c2=O)coc2ccccc12`, the IC50 (usually the point on the concentration scale where inhibition reaches its midpoint) in test [1] was 7.77 µM; in test [2], 1.4 µM; in test [3], 0.51 µM; in test [4] it was > 10 µM; in test [5] it was 7.4 µM; in test [6], > 10 µM.
For the compound `O=c1c(Cc2coc3cccc(O)c3c2=O)coc2ccccc12`, the half-inhibitory concentration (IC50) is 3.27 µM in test [1]; 7.55 µM in test [2]; 0.74 µM in test [3]; > 10 µM in test [4]; 5.95 µM in test [5]; > 10 µM in test [6].
`COc1cccc2occ(Cc3coc4ccccc4c3=O)c(=O)c12`: the IC50 was 3.19 µM in test [1]; 1.93 µM in test [2]; 0.34 µM in test [3]; > 10 µM in test [4]; 3.49 µM in test [5]; 3.43 µM in test [6].
For the compound `CC(C)COc1cccc2occ(Cc3coc4ccccc4c3=O)c(=O)c12`, the half-maximal inhibitory concentration (IC50) was > 10 µM in test [1]; > 10 µM in test [2]; 1.46 µM in test [3]; > 10 µM in test [4]; 1.72 µM in test [5]; > 10 µM in test [6].
`CC(C)CCOc1cccc2occ(Cc3coc4ccccc4c3=O)c(=O)c12`: the half-inhibitory concentration (IC50) is > 10 µM in test [1]; > 10 µM in test [2]; 3.96 µM in test [3]; > 10 µM in test [4]; > 10 µM in test [5]; > 10 µM in test [6].
For `O=c1c(Cc2coc3cccc(OCc4ccccc4)c3c2=O)coc2ccccc12`, the IC50 is 7.22 µM in test [1]; > 10 µM in test [2]; 3.99 µM in test [3]; > 10 µM in test [4]; 4.83 µM in test [5]; > 10 µM in test [6].
In the case of `O=c1c(/C=C/c2coc3ccccc3c2=O)coc2ccccc12`, the IC50 in test [1], in test [2], in test [3], in test [4], in test [5] and in test [6] was > 10 µM in each case.
Consider `O=c1c(CCc2coc3ccccc3c2=O)coc2ccccc12`, for which the half-maximal inhibitory concentration (IC50) in test [1], in test [2], in test [3], in test [4], in test [5] and in test [6] was > 10 µM each time.
For the compound `O=c1c(Cc2coc3cccc(OCC4CCCCC4)c3c2=O)coc2ccccc12`, the IC50 in test [1] was 3.53 µM; in test [2], 4.13 µM; in test [3], 4.23 µM; in test [4], 4.11 µM; in test [5], 4.51 µM; in test [6], 4.24 µM.
On to `Cc1ccc2c(=O)c(Cc3coc4cccc(OCC5CCCCC5)c4c3=O)coc2c1`, for which the 50% inhibitory concentration (IC50) came to 2.15 µM in test [1]; 3.22 µM in test [2]; 2.25 µM in test [3]; 3.32 µM in test [4]; 2.44 µM in test [5]; 2.22 µM in test [6].
On to `COc1ccc2c(=O)c(Cc3coc4cccc(OCC5CCCCC5)c4c3=O)coc2c1`, for which the 50% inhibitory concentration (IC50) in test [1] amounted to 1.44 µM; in test [2] it was 1.32 µM; in test [3] it was 1.35 µM; in test [4] it was 1.2 µM; in test [5], 1.12 µM; in test [6], 1.45 µM.
For `O=c1c(Cc2coc3cccc(OCC4CCCCC4)c3c2=O)coc2cc(Cl)ccc12`, the IC50 in test [1], in test [2], in test [3], in test [4], in test [5] and in test [6] was > 10 µM each time.
As for `O=c1c(Cc2coc3cccc(OCC4CCCCC4)c3c2=O)coc2cc(O)ccc12`, the IC50 in test [1] came out at 3.22 µM; in test [2] it was 2.15 µM; in test [3], 2.1 µM; in test [4], 3.22 µM; in test [5], 4.25 µM; in test [6], 2.11 µM.
Consider `O=C1c2c(OCC3CCCCC3)cccc2OCC1Cc1coc2ccccc2c1=O` (stereo not drawn), for which the concentration for half-maximal inhibition (IC50) stood at 8.42 µM in test [1]; 9.49 µM in test [2]; 8.2 µM in test [3]; 9.11 µM in test [4]; 9.38 µM in test [5]; 8.36 µM in test [6].
Turning to `COc1cccc2c1C(=O)c1c(O)c3c(c(O)c1C2=O)C[C@@](O)(C(=O)CO)C[C@@H]3O[C@H]1C[C@H](N)[C@H](O)[C@H](C)O1` [DOXORUBICIN HYDROCHLORIDE], the half-inhibitory concentration (IC50) in test [1] stood at 0.38 µM; in test [2], 0.49 µM; in test [4] it was 0.6 µM; in test [6], 0.43 µM.
